These results are taken from US7935673B2, “Polyphenol glycoside isolated from acerola” (Nichirei Biosciences, Inc., priority 2004, dated 2011).

Data set [1] is described as follows: Antioxidative activity measurement by DPPH radical scavenging. It counts as biochemical. The following applies: for DPPH radical 50% scavenging concentration: 30° C., 30 minutes, absorbance at 517 nm; for radical scavenging activity compared with α-tocopherol: DPPH reagent, result in words. How it is done:
Antioxidative activity was evaluated with the use of a stable-radical diphenyl-p-picrylhydradil (DPPH)/ethanol solution. 400 μl of a sample/methanol solution was mixed with 1600 μl of 250 mM acetate buffer (pH=5.5) and 1200 μl of ethanol, at a different concentration, followed by preincubation at 30° C. for 5 minutes. Then, 800 μl of a 500 μM DPPH/ethanol solution was added to each resulting solution, followed by mixing. Each resultant was allowed to stand at 30° C. for 30 minutes, followed by measurement of absorbance at 517 nm. α-tocopherol was also subjected to the same operation. The obtained solution was thus designated as a positive control. A blank solution used was prepared by the same operation with the use of methanol instead of a sample solution. Based on absorbances measured, radical scavenging rates were calculated based on the following equation. Scavenging rate(%)=(1−[Absorbance of a sample]/[Absorbance of a blank])×100 [Equation 1]
The concentration of a sample solution was changed stepwise for the measurement of the aforementioned scavenging rate. As a result, the concentration of a sample solution at which the DPPH radical scavenging rate was 50% was obtained so as to be designated as the DPPH radical 50% scavenging concentration. The lower such value, the higher the radical scavenging capacity.
In general terms: DPPH is a stable violet radical that fades when it is reduced.

Data set [2] deals with α-glucosidase (yeast-derived reagent). As to the kind of experiment: α-Glucosidase inhibitory activity (maltose substrate). The following applies: for IC50: yeast-derived α-glucosidase, maltose substrate, 37° C., 60 minutes, read-out: 50% α-glucosidase inhibition concentration. It counts as biochemical. As for the experimental part: A yeast-derived reagent (Wako Pure Chemical) was used as an α-glucosidase. The reagent was dissolved in 10 mM phosphate buffer (pH 7.0) containing 0.2% bovine serum albumin.
In the experiment, 0.25 mL of 100 mM phosphate buffer, 0.25 mL of each sample solution at a different concentration, and 0.125 mL of a maltose aqueous solution serving as a substrate at a concentration of 10 mg/mL were mixed, followed by heating at 37° C. for 5 minutes. Then, 0.125 mL of an α-glucosidase solution was added thereto, followed by enzyme treatment at 37° C. for 60 minutes. As a reaction termination solution, 0.5 mL of a 0.2 M sodium carbonate solution was added to each resultant, followed by mixing. The glucose concentration of each reaction solution was measured using Glucose CII-Test Wako (Wako Pure Chemical). An inhibition rate (%) was calculated based on a proportion of the glucose concentration of a solution to which a sample had been added to the glucose concentration of a blank solution to which no sample had been added. Then, the concentration of each sample at which 50% enzyme activity was inhibited was calculated based on such inhibition rate derived from the concentration of the sample, followed by comparison.

For data set [3] the following is noted: result in words; cited from earlier work.

`OCC1OC2O[C@@H]3[C@@H](c4ccc(O)c(O)c4)Oc4cc(O)cc(O)c4[C@@H]3OC2C(O)C1O` (stereo in doubt) [Product of the present invention]: in data set [1], the “DPPH radical 50% scavenging concentration” value was found to be 0.080 mg/mL and the “radical scavenging activity compared with α-tocopherol” value was “comparable to or exceeding that of α-tocopherol”. For the same compound, the “radical scavenging activity compared with α-tocopherol” value in data set [1] (listed as novel polyphenol glycoside of the present invention) is reported as “almost comparable to that of α-tocopherol”. In data set [2] (result in words), the “glucosidase inhibitory activity compared with isoquercitrin” value is recorded as “several times stronger than that of isoquercitrin” and the “glucosidase inhibitory activity compared with taxifolin” value was “several times stronger”. In data set [2] (result in words, listed as polyphenol glycoside of the present invention), the “glucosidase inhibitory activity compared with taxifolin” value was “several times stronger than that of taxifolin”. For the same compound, in data set [2], the IC50 was found to be 164 µM.
As to `Cc1c(C)c2c(c(C)c1O)CC[C@@](C)(CCC[C@H](C)CCC[C@H](C)CCCC(C)C)O2` [α-tocopherol, reference compound], in data set [1], the “DPPH radical 50% scavenging concentration” value came to 0.127 mg/mL. Moreover, the solubility in water result in data set [3] was “insoluble in water”.
For the compound `O=c1c(OC2OC(CO)C(O)C(O)C2O)c(-c2ccc(O)c(O)c2)oc2cc(O)cc(O)c12` (centres unmarked) [Isoquercitrin, quercetin-3-glucoside, reference compound], the IC50 in data set [2] was 727 µM.
Consider `O=C1c2c(O)cc(O)cc2O[C@H](c2ccc(O)c(O)c2)[C@H]1O` [Taxifolin, taxifolin, reference compound], for which the IC50 in data set [2] was determined as 892 µM.
